Data set [1] deals with Echinochloa oryzoides (Ard.) Fritsch. In words: Preemergence weed control under flooded paddy conditions, ECHORC (Watergrass (Calif.)). As to conditions: preemergence, flooded paddy, rated three to four weeks after treatment. It counts as in vivo.
Data set [2] deals with Sagittaria pygmaea, L. In words: Preemergence weed control under flooded paddy conditions, SAGPY (Arrowhead (Pygmaea)). It counts as in vivo. As to conditions: preemergence, flooded paddy, rated three to four weeks after treatment.
Data set [3] deals with Oryza sativa, (L.) Tebonnet. Nature of the data set: Rice tolerance to post-transplant applications under flooded paddy conditions (Example 187), ORYSAT (Rice, Tebonnet). The note with it: rated three to four weeks after treatment.
For data set [4], the system named is Cyperus serotinus, Rottb. Nature of the data set: Preemergence weed control under flooded paddy conditions, CYPSE (Flatsedge). In kind it is in vivo. As to conditions: preemergence, rated three to four weeks after treatment.
The subject of data set [5] is Cyperus iria. In words: Preemergence weed control under flooded paddy conditions, CYPIR (Rice Flatsedge). In kind it is in vivo. The note with it: preemergence, flooded paddy, rated three to four weeks after treatment.
The subject of data set [6] is Monochoria vaginalis, Presl. In words: Preemergence weed control under flooded paddy conditions, MOOVA (Monochoria). It counts as in vivo. The note with it: preemergence, flooded paddy, rated three to four weeks after treatment.

For `COC(=O)C(C)Oc1ccc(I)cc1-c1nsc2ccc(-n3c(=O)cc(C(F)(F)F)n(C)c3=O)cc12` (stereo not drawn) [Example 460, Propionic acid, 2-{2-{5-[3,6-dihydro-3-methyl-2,6-dioxo-4-(trifluoromethyl)-1(2H)-pyrimidinyl]-1,2-benzisothiazol-3-yl}-4-iodophenoxy}-, methyl ester], the ECHORC herbicidal rating is 6.0 in data set [1] (0.0320 kg/ha), 7.0 in data set [1] (0.0620 kg/ha), 9.0 in data set [1] (0.1250 kg/ha) and 9.0 in data set [1] (0.2500 kg/ha). In addition, the SAGPY herbicidal rating in data set [2] (0.0320 kg/ha) came to 0.0; in data set [2] (0.0620 kg/ha), 0.0; in data set [2] (0.1250 kg/ha) it was 3.0; in data set [2] (0.2500 kg/ha), 3.0. Besides, the “ORYSAT herbicidal rating (rice tolerance)” value (“ORYSAT herbicidal rating” below) in data set [3] (0.0320 kg/ha) is on record as 4.0; in data set [3] (0.0620 kg/ha), 4.0; in data set [3] (0.1250 kg/ha), 4.0; in data set [3] (0.2500 kg/ha), 5.0. The CYPSE herbicidal rating in data set [4] (0.1250 kg/ha) and in data set [4] (0.2500 kg/ha) was 0.0 throughout. For the same compound, the CYPIR herbicidal rating came to 0.0 in data set [5] (0.0320 kg/ha), 2.0 in data set [5] (0.0620 kg/ha), 3.0 in data set [5] (0.1250 kg/ha) and 3.0 in data set [5] (0.2500 kg/ha). For the same compound, the MOOVA herbicidal rating in data set [6] (0.0320 kg/ha) worked out at 3.0; in data set [6] (0.0620 kg/ha) it was 4.0; in data set [6] (0.1250 kg/ha) it was 4.0; in data set [6] (0.2500 kg/ha), 4.0.

Regarding `Cn1c(C(F)(F)F)cc(=O)n(-c2ccc3snc(COCOCc4ccccc4)c3c2)c1=O` [Example 461, 2,4(1H,3H)-Pyrimidinedione, 3-{3-{[(benzyloxy)-methoxy]methyl}-1,2-benzisothiazol-5-yl}-1-methyl-6-(trifluoromethyl)-], the ECHORC herbicidal rating in data set [1] (0.0320 kg/ha), in data set [1] (0.0620 kg/ha), in data set [1] (0.1250 kg/ha) and in data set [1] (0.2500 kg/ha) was 9.0 each time. Moreover, the SAGPY herbicidal rating stood at 2.0 in data set [2] (0.0320 kg/ha), 3.0 in data set [2] (0.0620 kg/ha), 4.0 in data set [2] (0.1250 kg/ha) and 6.0 in data set [2] (0.2500 kg/ha). Also, the “ORYSAT herbicidal rating” value is reported as 5.0 in data set [3] (0.0320 kg/ha), 5.0 in data set [3] (0.0620 kg/ha), 5.0 in data set [3] (0.1250 kg/ha) and 6.0 in data set [3] (0.2500 kg/ha). Also, the CYPSE herbicidal rating in data set [4] (0.0320 kg/ha) is recorded as 0.0; in data set [4] (0.2500 kg/ha), 7.0. Also, the CYPIR herbicidal rating in data set [5] (0.0320 kg/ha) worked out at 6.0; in data set [5] (0.0620 kg/ha), 9.0; in data set [5] (0.1250 kg/ha) it was 9.0; in data set [5] (0.2500 kg/ha), 9.0. Further, the MOOVA herbicidal rating in data set [6] (0.0320 kg/ha) is 7.0; in data set [6] (0.0620 kg/ha), 7.0; in data set [6] (0.1250 kg/ha), 9.0; in data set [6] (0.2500 kg/ha), 9.0.

`COc1ccc(C)cc1-c1nsc2cc(F)c(-n3c(=O)cc(C(F)(F)F)n(C)c3=O)cc12` [Example 462, 2,4(1H,3H)-Pyrimidinedione, 3-[6-fluoro-3-(6-methoxy-m-tolyl)-1,2-benzisothiazol-5-yl]-1-methyl-6-(trifluoromethyl)-]: the ECHORC herbicidal rating in data set [1] (0.0320 kg/ha), in data set [1] (0.0620 kg/ha), in data set [1] (0.1250 kg/ha) and in data set [1] (0.2500 kg/ha) was 9.0 each time. The SAGPY herbicidal rating was found to be 1.0 in data set [2] (0.0320 kg/ha), 4.0 in data set [2] (0.0620 kg/ha), 5.0 in data set [2] (0.1250 kg/ha) and 6.0 in data set [2] (0.2500 kg/ha). Moreover, the results for the “ORYSAT herbicidal rating” value in data set [3] (0.0320 kg/ha), in data set [3] (0.0620 kg/ha) and in data set [3] (0.2500 kg/ha) were 5.0, 5.0 and 6.0, respectively. Also, the CYPSE herbicidal rating in data set [4] (0.0620 kg/ha) amounted to 3.0. The CYPIR herbicidal rating in data set [5] (0.0320 kg/ha), in data set [5] (0.0620 kg/ha), in data set [5] (0.1250 kg/ha) and in data set [5] (0.2500 kg/ha) was 9.0 throughout. For the same compound, the MOOVA herbicidal rating in data set [6] (0.0320 kg/ha), in data set [6] (0.0620 kg/ha), in data set [6] (0.1250 kg/ha) and in data set [6] (0.2500 kg/ha) was 9.0 throughout.

`Cc1ccc(CS(=O)(=O)NC(=O)c2nsc3ccc(-n4c(=O)cc(C(F)(F)F)n(C)c4=O)cc23)cc1` [Example 464, 1,2-Benzisothiazole-3-carboxamide, 5-[3,6-dihydro-3-methyl-2,6-dioxo-4-(trifluoromethyl)-1(2H)-pyrimidinyl]-N-[(p-methylbenzyl)sulfonyl]-]: the ECHORC herbicidal rating stood at 6.0 in data set [1] (0.0320 kg/ha), 6.0 in data set [1] (0.1250 kg/ha) and 9.0 in data set [1] (0.2500 kg/ha). Besides, the SAGPY herbicidal rating in data set [2] (0.0320 kg/ha) is recorded as 0.0; in data set [2] (0.0620 kg/ha) it was 0.0; in data set [2] (0.1250 kg/ha), 6.0; in data set [2] (0.2500 kg/ha) it was 4.0. In addition, the “ORYSAT herbicidal rating” value in data set [3] (0.0320 kg/ha) was 0.0; in data set [3] (0.0620 kg/ha), 2.0; in data set [3] (0.1250 kg/ha) it was 2.0; in data set [3] (0.2500 kg/ha), 4.0. The CYPSE herbicidal rating in data set [4] (0.0320 kg/ha) was 0.0; in data set [4] (0.0620 kg/ha) it was 0.0; in data set [4] (0.1250 kg/ha) it was 0.0; in data set [4] (0.2500 kg/ha), 7.0. The CYPIR herbicidal rating in data set [5] (0.0320 kg/ha) turned out to be 0.0; in data set [5] (0.0620 kg/ha) it was 3.0; in data set [5] (0.1250 kg/ha), 3.0; in data set [5] (0.2500 kg/ha) it was 5.0. Besides, the MOOVA herbicidal rating in data set [6] (0.0320 kg/ha) stood at 7.0; in data set [6] (0.0620 kg/ha) it was 9.0; in data set [6] (0.1250 kg/ha), 9.0; in data set [6] (0.2500 kg/ha), 6.0.

Turning to `Cc1ccccc1CS(=O)(=O)NC(=O)c1nsc2ccc(-n3c(=O)cc(C(F)(F)F)n(C)c3=O)cc12` [Example 465, 1,2-Benzisothiazole-3-carboxamide, 5-[3,6-dihydro-3-methyl-2,6-dioxo-4-(trifluoromethyl)-1(2H)-pyrimidinyl]-N-[(o-methylbenzyl)sulfonyl]-], the ECHORC herbicidal rating stood at 6.0 in data set [1] (0.0320 kg/ha), 6.0 in data set [1] (0.0620 kg/ha), 7.0 in data set [1] (0.1250 kg/ha) and 9.0 in data set [1] (0.2500 kg/ha). Also, the SAGPY herbicidal rating in data set [2] (0.0320 kg/ha) turned out to be 2.0; in data set [2] (0.0620 kg/ha), 5.0; in data set [2] (0.1250 kg/ha), 5.0; in data set [2] (0.2500 kg/ha), 6.0. Moreover, the “ORYSAT herbicidal rating” value in data set [3] (0.0320 kg/ha) was 2.0; in data set [3] (0.0620 kg/ha), 3.0; in data set [3] (0.1250 kg/ha), 4.0; in data set [3] (0.2500 kg/ha), 5.0. For the same compound, the CYPSE herbicidal rating in data set [4] (0.0320 kg/ha) came to 0.0; in data set [4] (0.0620 kg/ha), 4.0; in data set [4] (0.1250 kg/ha) it was 7.0; in data set [4] (0.2500 kg/ha), 9.0. Besides, the CYPIR herbicidal rating in data set [5] (0.0320 kg/ha) came out at 0.0; in data set [5] (0.0620 kg/ha) it was 0.0; in data set [5] (0.1250 kg/ha), 3.0; in data set [5] (0.2500 kg/ha) it was 8.0. The MOOVA herbicidal rating in data set [6] (0.0320 kg/ha) stood at 2.0; in data set [6] (0.0620 kg/ha) it was 3.0; in data set [6] (0.1250 kg/ha), 6.0; in data set [6] (0.2500 kg/ha), 9.0.

With `Cn1c(C(F)(F)F)cc(=O)n(-c2ccc3snc(C(C)(C)C(=O)O)c3c2)c1=O` [Example 466, 1,2-Benzisothiazole-3-acetic acid, 5-[3,6-dihydro-3-methyl-2,6-dioxo-4-(trifluoromethyl)-1(2H)-pyrimidinyl]-alpha,alpha-dimethyl-], the ECHORC herbicidal rating in data set [1] (0.0320 kg/ha) was found to be 2.0; in data set [1] (0.0620 kg/ha) it was 4.0; in data set [1] (0.1250 kg/ha) it was 5.0; in data set [1] (0.2500 kg/ha) it was 7.0. Also, the SAGPY herbicidal rating in data set [2] (0.0320 kg/ha) is reported as 0.0; in data set [2] (0.0620 kg/ha) it was 0.0; in data set [2] (0.1250 kg/ha), 3.0; in data set [2] (0.2500 kg/ha), 7.0. For the same compound, the “ORYSAT herbicidal rating” value is 4.0 in data set [3] (0.0320 kg/ha), 5.0 in data set [3] (0.0620 kg/ha), 7.0 in data set [3] (0.1250 kg/ha) and 9.0 in data set [3] (0.2500 kg/ha). The compound further displayed a CYPSE herbicidal rating in data set [4] (0.2500 kg/ha) of 1.0. For the same compound, the CYPIR herbicidal rating is 3.0 in data set [5] (0.0320 kg/ha), 3.0 in data set [5] (0.0620 kg/ha), 7.0 in data set [5] (0.1250 kg/ha) and 9.0 in data set [5] (0.2500 kg/ha). Besides, the MOOVA herbicidal rating in data set [6] (0.0320 kg/ha) stood at 7.0; in data set [6] (0.0620 kg/ha), 7.0; in data set [6] (0.1250 kg/ha), 9.0; in data set [6] (0.2500 kg/ha), 9.0.

For the origin of these results see patent publication EP0908457B1, “3-(1,2-benzisothiazol- and isoxazol-5-Y1)-2,4(1H,3H)-pyrimidinedione or thione and 3-(1,2-benzisothiazol- and isoxazol-5-y1)-4(3H)-pyrimidinone or thione herbicidal agents” (BASF AKTIENGESELLSCHAFT, priority 1997, dated 1999).
